Test results as given in US10517913B2, “Composition for prevention, alleviation, or treatment of peripheral neuropathy comprising Lithospermi Radix extract as an effective component” (priority 2015, dated 2019).

Assays:
PC-12 cells [1] = assay: NGF-induced neurite growth, quantitative image analysis; format: cell-based; settings: 200 nM oxaliplatin, NGF 100 ng/ml, 3 days
Protocol: (§1) PC-12 was purchased from the ATCC (USA). The cells were cultured in a 100 mm cell culture dish coated with collagen type I in an incubator at 37° C., 5% CO2, using a DMEM basal medium supplemented with 5% non-heat inactivated fetal bovine serum (FBS), 10% heat inactivated horse serum (HS), 100 unit/ml penicillin, and 100 μg/ml streptomycin. The basal medium, sera, and other additives were purchased from the Thermo Fisher Scientific.
Specifically, PC-12 cells cultured according to [Materials and Methods 3-1] were evenly plated at 1×10^4 cells/well on a 24-well plate coated with collagen type IV in a DMEM growth medium where the cells were allowed to adhere on the bottom of the plate. After 12 hours, the medium was exchanged with a serum-free DMEM medium containing 100 ng/ml nerve growth factor (NGF) to induce neurite growth. The cells were treated with 200 nM oxaliplatin (Oxal) to induce neurotoxicity. Cells were co-treated with the Lithospermi Radix extract (WLR) prepared according to [Materials and Methods 1] at concentrations of 25 and 100 μg/ml, and amifostine (Ami) at 500 μM as a positive control. After 3 days, the ratios of cells forming neurites and the lengths of the neurites were quantified using image analysis under an optical microscope.

[2] = tested on: astrocytes and microglial cells in spinal cord of peripheral neuropathic animals induced by oxaliplatin; assay: Immunohistological analysis of glial cells (GFAP, Iba-1) in lumbar spinal cord; format: in vivo, C57BL/6 mice
Text: (§2) In the present invention, an animal model having peripheral neuropathy was induced by oxaliplatin. Eight-week old male C57BL/6 mice were purchased from the OrientBio. Following 1 week acclimation period in a cage in an animal test room, the base line (BL) of responses of experimental animals to 3 times of mechanical stimulations applied to the right hind footpad of the animal using von Frey filament hair. Then, the animals were divided into different groups (N=8 animals/group). Peripheral neuropathy was induced by injection of 5 mg/kg oxaliplatin through tail veins of animals (once a week, 2 times for 2 weeks, i.e., 10 mg/kg oxaliplatin in total). Oxaliplatin was purchased from the LC Laboratories.
(§3) The specimens were prepared to histologically determine the protective effect of the Lithospermi Radix extract (WLR) against neuronal damage in peripheral neuropathic animals induced by oxaliplatin. Specifically, the animal was anaesthetized by intraperitoneal injection of sodium pentobarbital (50 mg/kg), and then, blood was removed by perfusion of 0.9% physiological saline through the aorta via left ventricle. Following fixation by perfusion of 4% paraformaldehyde solution buffered with 0.1 M phosphate, the 4th to 6th lumbar spinal cords, dorsal root ganglia, and the hind footpad skins were removed. The tissues were further fixed in the same fixation solution as above. The paraffin-embedded tissues were sectioned at a 4 μm thickness. The slices were mounted on a glass slide, dried, and then, kept at room temperature until use.
The slice of spinal cord with 4 μm thickness was subjected to immunofluorescence staining using antibodies against GFAP and Iba-1 which are astrocyte and microglial cell markers, respectively. After removal of paraffin and hydration, the slice was immersed in citrate buffer solution (Vector Lab., USA) for 10 minutes in a microwave to recover antigenicity and increase reactivity. […]
The activity of the glial cells was expressed by the ratio (%) of the area of stained cells relative to the viewing area under a fluorescence microscope. The fluorescence microscopic images were analyzed compared to the control treatment using a software (Cellsense, Olympus).
Specifically, peripheral neuropathy was induced in male C57BL/6 mice by oxaliplatin (10 mg/kg) according to [Materials and Methods 4]. […] Using the obtained specimen, activation of astrocytes and microglial cells in dorsal horn areas of the lumbar spinal cord of the animals was measured by detecting GFAP and Iba-1 marker proteins, respectively, according to [Materials and Methods 6-2]. Distribution of intraepidermal nerve fiber (IENF) in the hind footpad skin was measured by detecting PGP9.5 marker protein according to [Materials and Methods 6-3].

[3] = tested on: human lung cancer cells (A549); assay: Drug-herb interaction with oxaliplatin cytotoxicity (Ez-Cytox), A549; format: cell-based; settings: oxaliplatin 0 to 100 μg/ml alone (No treat), 72 hours
Protocol: (§4) A549 and HCT116 cells were purchased from the ATCC (USA). They were cultured in a 100 mm cell culture dish in an incubator at 37° C., 5% CO2, using an RPMI1640 basal medium supplemented with 10% heat inactivated FBS, 100 unit/ml penicillin, and 100 μg/ml streptomycin, and then used for in vitro tests. The basal medium, serum, and other additives were purchased from the Thermo Fisher Scientific.
(§5) Specifically, human lung cancer cells (A549) and human colon cancer cells (HCT116) were cultured according to [Materials and Methods 3-3]. The cells were plated in a 96-well culture dish at 5,000 cells per well. After 24 hours, the cells were simultaneously treated with serially diluted oxaliplatin (0 to 100 μg/ml) and the Lithospermi Radix extract (0(PBS), 10, 30, 100 μg/ml) prepared according to [Materials and Methods 1]. The cell only treated with oxaliplatin was served as a negative control. After 72 hours, the cell viability (%) was measured using Ez-Cytox assay kit. The rate of cell death (% death) caused by oxaliplatin was expressed by (100−cell viability (%)).

PC-12 cells [4] = assay: Neurite outgrowth assay kit (NS225), qualitative analysis; format: cell-based; settings: 200 nM oxaliplatin, NGF 100 ng/ml, 48 hours
Protocol: as §1
The neuroprotective effect of the Lithospermi Radix extract of the present invention was determined using a neurite outgrowth analysis kit (NS225, Millipore) with 1 μm pore-sized membrane.
Specifically, PC-12 was cultured according to [Materials and Methods 3-1] for 72 hours in a DMEM low serum-differentiation medium supplemented with 1% horse serum, 100 unit/ml penicillin, 100 μg/ml streptomycin, and 100 ng/ml nerve growth factor (NGF). The membrane with 1 μm pores was coated by immersing it in a 24-well plate containing a 10 μg/ml collagen solution in an amount of 400 μl/well for 2 hours at 37° C. The collagen-coated membrane was transferred to a well containing a 600 μl of differentiation medium, and then, the differentiated PC-12 cells for 72 hours were plated at 75,000 cells/100 μl/membrane. The cells were treated with 200 nM oxaliplatin to induce neurotoxicity. […]

[5] = tested on: intraepidermal nerve fiber (IENF) of peripheral neuropathic animals induced by oxaliplatin; assay: Quantitative histological analysis of intraepidermal nerve fiber (PGP9.5) in hind footpad skin; format: in vivo, C57BL/6 mice
Text: as §2, with “Laboratories. […]” for “Laboratories.”
The slice of hind footpad skin with 4 μm thickness was subjected to immunofluorescence staining using a PGP9.5 antibody, a marker for IENF in skin. […] The expression level of intraepidermal nerve fibers was expressed by the number of fluorescence-stained nerves in epidermis which were stemmed from dermis per field length of the basal membrane of epidermis (IENF/mm) within a viewing area under a fluorescence microscope. The fluorescent microscopic images were analyzed compared with control treatment using a software (Cellsense, Olympus). […]

[6] = tested on: human colon cancer cells (HCT116); assay: Drug-herb interaction with oxaliplatin cytotoxicity (Ez-Cytox), HCT116; format: cell-based; settings: oxaliplatin 0 to 100 μg/ml alone (No treat), 72 hours
Protocol: as §4, §5

[7] = tested on: dorsal root ganglion (DRG) neurons of peripheral neuropathic animals induced by oxaliplatin; assay: Morphological cell analysis of dorsal root ganglion neurons; format: in vivo, C57BL/6 mice
Text: as §2, §3
Dorsal root ganglions were cut out, sectioned into slices with 4 μm thickness and then, subjected to Azan-Mallory trichrome staining. The nucleoli in the stained slice were examined under an optical microscope. Among the neurons having discernible nucleoli, the number of neurons having eccentric nucleoli or multinucleolated nucleus was expressed as a percentage of the total neurons in a viewing area.
Specifically, peripheral neuropathy was induced in male C57BL/6 mice by oxaliplatin (10 mg/kg) according to [Materials and Methods 4]. After that, the mice were orally administered 6 times per week with 250 mg/kg of a Lithospermi Radix extract (WLR) prepared in [Materials and Methods 1] or 0.5% carboxymethyl cellulose (CMC) as a negative control. In addition, 100 mg/kg amifostine was intraperitoneally administered 2 times per week as a positive control. After drug administration for 2 weeks, dorsal root ganglion (DRG) was cut out according to [Materials and Methods 6-1]. Using the obtained specimen, morphological change of nucleus and nucleoli in the dorsal root ganglion (DRG) neurons was observed according to [Materials and Methods 6-4].

P-gp = assay: Induction of P-gp gene expression in HepaRG (real-time PCR); format: in vitro ADME, human; settings: 10 μM rifampicin (positive control), 24 hours
Protocol: (§6) HepaRG was purchased from the Thermo Fisher Scientific. The cells were used immediately after purchase without any subculture. A William's medium E basal medium supplemented with Thaw, Plate & General Purpose Supplements was used for general cell culture. A William's medium E basal medium supplemented containing Induction Medium Supplements was used for induction experiment. The cells were cultured in a 24-well culture plate coated with collagen type I in an incubator at 37° C., 5% CO2. All culture media and additives used for HepaRG cell culture were purchased from the Thermo Fisher Scientific.
(§7) According to [Materials and Methods 3-4], human hepatoma cell line (HepaRG) were plated at 5×10^5 cells/ml in a 24-well plate coated with collagen type I and cultured for 72 hours at 37° C., 5% CO2. Then, the cells were treated for 24 hours with a positive control drug or with a Lithospermi Radix extract (WLR) at concentrations of 10, 20, 100, and 500 μg/ml. For a positive control drug, 50 μM omeprazole was used for CYP1A2 and CYP2B6, and 10 μM rifampicin was used for CYP3A4 and P-gp. Distilled water was used as a negative control. After 24 hours, total RNA was extracted using an Easy-Spin™ Total RNA extraction kit (iNtRON Biotechnology). cDNA was synthesized from total RNA (500 ng) using oligo dT and iScript cDNA synthesis kit (Bio-Rad). […]

CYP2B6 = assay: Induction of CYP2B6 gene expression in HepaRG (real-time PCR); format: in vitro ADME, human; settings: 50 μM omeprazole (positive control), 24 hours
Protocol: as §6, §7

CYP1A2 = assay: Induction of CYP1A2 gene expression in HepaRG (real-time PCR); format: in vitro ADME, human; settings: 50 μM omeprazole (positive control), 24 hours
Protocol: as §6, §7

[8] = oxaliplatin 10 mg/kg, lumbar spinal cord dorsal horn
[9] = after oxaliplatin 10 mg/kg, WLR 250 mg/kg oral 6 times per week or amifostine 100 mg/kg i.p. 2 times per week, 2 weeks

SMILES: O=C1[O][Pt]2([NH][C@@H]3CCCC[C@H]3[NH]2)[O]C1=O [oxaliplatin]
- neurite growth induced by nerve growth factor (NGF) (PC-12 cells [1]): inhibited
- number of activated astrocytes (GFAP positive cells) [2, 8]: increased
- number of activated microglial cells (Iba-1 positive cells) [2, 8]: increased
- growth of cancer cells [3]: inhibited
- Nerve growth factor-induced neurite growth (PC-12 cells [4]): inhibited
- densities of intraepidermal nerve fibers in hind footpad skin ([5]; oxaliplatin 10 mg/kg): reduced
- growth of cancer cells [6]: inhibited
- frequency of DRG neurons having eccentric nucleoli ([7]; oxaliplatin 10 mg/kg): increased
- frequency of DRG neurons having multinucleolated nucleus ([7]; oxaliplatin 10 mg/kg): increased

SMILES: NCCCNCCSP(=O)(O)O [amifostine]
- oxaliplatin-increased number of activated astrocytes (GFAP positive cells) [2, 9]: reduced to the same extent
- oxaliplatin-increased number of activated microglial cells (Iba-1 positive cells) [2, 9]: reduced to the same extent
- oxaliplatin-reduced densities of intraepidermal nerve fibers in hind footpad skin [5, 9]: recovered
- oxaliplatin-induced morphological change: DRG neurons having eccentric nucleoli [7, 9]: reduced to the same extent
- oxaliplatin-induced morphological change: number of neurons having multinucleolated nucleus [7, 9]: decreased with statistical significance

SMILES: CO[C@H]1/C=C/O[C@@]2(C)Oc3c(C)c(O)c4c(O)c(c(/C=N/N5CCN(C)CC5)c(O)c4c3C2=O)NC(=O)/C(C)=C\C=C\[C@H](C)[C@H](O)[C@@H](C)[C@@H](O)[C@@H](C)[C@H](OC(C)=O)[C@@H]1C [rifampicin]
- expression of P-gp (P-gp): effectively enhanced

SMILES: COc1ccc2[nH]c([S+]([O-])Cc3ncc(C)c(OC)c3C)nc2c1 (centres unmarked) [omeprazole]
- expression of CYP2B6 (CYP2B6): effectively enhanced
- expression of CYP1A2 (CYP1A2): effectively enhanced
